The results in this text go back to US20070037788A1, “Tricyclic steroid hormone nuclear receptor modulators” (Eli Lilly and Company, priority 2003, published 2007).

In general, Ki refers to the dissociation constant of the complex between target and ligand, obtained from inhibition or displacement.

The experiment addresses T1, human GR (glucocorticoid receptor) (Homo sapiens, UniProt P04150).
T1 construct: expressed in transfected cells; host or cells: 293 cells
T1 sequence (P04150 1-777): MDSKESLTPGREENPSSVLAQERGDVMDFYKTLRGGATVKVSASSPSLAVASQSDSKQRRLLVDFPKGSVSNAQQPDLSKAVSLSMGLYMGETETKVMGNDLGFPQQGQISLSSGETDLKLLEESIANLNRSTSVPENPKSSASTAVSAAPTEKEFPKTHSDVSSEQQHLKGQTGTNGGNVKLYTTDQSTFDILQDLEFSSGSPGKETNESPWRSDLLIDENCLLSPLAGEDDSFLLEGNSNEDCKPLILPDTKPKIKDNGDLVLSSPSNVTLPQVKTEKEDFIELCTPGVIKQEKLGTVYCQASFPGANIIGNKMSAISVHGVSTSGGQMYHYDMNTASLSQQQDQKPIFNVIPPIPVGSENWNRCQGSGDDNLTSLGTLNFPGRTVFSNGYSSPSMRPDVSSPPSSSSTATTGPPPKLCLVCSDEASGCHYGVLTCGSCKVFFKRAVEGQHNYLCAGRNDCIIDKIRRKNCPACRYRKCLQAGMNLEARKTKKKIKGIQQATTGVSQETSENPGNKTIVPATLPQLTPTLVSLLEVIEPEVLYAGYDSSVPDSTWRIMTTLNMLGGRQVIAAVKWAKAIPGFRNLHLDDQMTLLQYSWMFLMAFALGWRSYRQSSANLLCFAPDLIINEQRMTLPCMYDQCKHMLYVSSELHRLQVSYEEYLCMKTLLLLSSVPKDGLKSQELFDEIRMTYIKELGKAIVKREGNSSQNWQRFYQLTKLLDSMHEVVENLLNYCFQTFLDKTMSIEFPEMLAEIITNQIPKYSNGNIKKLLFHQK
Nature of the experiment: Alternative Binding Assay Protocol (Method 2), GR. The note with it: 293-GR lysate, 3H-dexamethasone. The protocol:
Cell lysates from 293 cells overexpressing human GR (glucocorticoid receptor), AR (androgen receptor), MR (mineralocorticoid receptor) or PR (progesterone receptor) are used for competition binding assays to determine Ki values for test compounds. Briefly, competition binding assays are run in a buffer containing 20 mM Hepes, pH 7.6, 0.2 mM EDTA, 75 mM NaCl, 1.5 mM MgCl2, 20% glycerol, 20 mM sodium molybdate, 0.2 mM DTT, 20 ug/ml aprotinin and 20 ug/ml leupeptin, using either 0.3 nM ^3H-dexamethasone for GR binding, 0.36 nM ^3H-methyltrienolone for AR binding, 0.25 nM ^3H-aldosterone for MR binding, or 0.29 nM ^3H-methyltrienolone for PR binding, and either 20 ug 293-GR lysate, 22 ug 293-AR lysate, 20 ug 293-MR lysate or 40 ug 293-PR lysate per well. Competing compounds are added at various concentrations in half-log increments. Non-specific binding is determined in the presence of 500 nM dexamethasone for GR binding, 500 nM aldosterone for MR binding, or 500 nM methyltrienolone for AR and PR binding. The binding reaction (140 μl) is incubated for overnight at 4° C., then 70 μl of cold charcoal-dextran buffer (containing per 50 ml of assay buffer, 0.75 g of charcoal and 0.25 g of dextran) is added to each reaction. Plates are mixed 8 minutes on an orbital shaker at 4° C. Plates are then centrifuged at 3,000 rpm at 4° C. for 10 minutes. An aliquot of 120 μl of the mix is transferred to another 96-well plate and 175 μl of Wallac Optiphase “Hisafe 3” scintillation fluid is added to each well. Plates are sealed and shaken vigorously on an orbital shaker. After an incubation of 2 hrs, plates are read in a Wallac Microbeta counter. The data is used to calculate an IC50 and % Inhibition at 10 μM. The Kd for ^3H-dexamethasone for GR binding, ^3H-methyltrienolone for AR binding, ^3H-aldosterone for MR binding, or ^3H-methyltrienolone for PR binding, is determined by saturation binding. The IC50 values for compounds are converted to Ki using Cheng-Prusoff equation and the Kd determined by saturation binding assay.

SMILES strings stand for the structures. Bounds are passed on as bounds.

`CCN1CC[C@@H](n2c(=O)[nH]c3cc(/C=C4/c5ccc(F)cc5OCc5c(F)cccc54)ccc32)C1` [Example 46]: the Ki is < 1000 nM.
